The source of these data is US6548072B1, “Skin care compositions containing an organic extract of chick pea” (Chesebrough-Pond's USA Co., division of Conopco, Inc., priority 1997, dated 2003).

In experiment [1] the test system is piglet epidermal cells. The experiment can be described thus: Piglet skin organ culture, 3H-thymidine incorporation into the epidermis. Format: cell-based, pig. The text has this:
Pig skin is morphologically and biochemically similar to human skin and is therefore used commonly for testing the effects of materials for, human topical use. Fresh shaved skin from piglets was obtained from the local slaughter house, washed with Dove® Soap and dermatomed at 200μ thickness to obtain the top epidermis and dermal layer. Uniform punch biopsies of the dermatomed pig skin was taken using a 7 mm punch. The biopsies were washed in medium containing high antibiotic/antimycotic mix(Kanamycin and penicillin and streptomycin from Gibco) and incubated for 3 days in high glucose DMEM medium containing hydrocortisone, L-glutamine, antibiotic and antimycotic in the absence of serum in transwell plates, 3 biopsies per well. The medium was fed from the bottom of the transwell so that the epidermal side of the biopsies was in contact with air. On the 3rd day, the medium was changed to fresh medium, and the biopsies were exposed to the various concentrations of various actives in 1 μl of DMSO, as indicated in Table 4. 3 days later, medium was changed, actives readded and the biopsies were labeled with 10 μCi of 3H thymidine per well. After washing the biopsies in PBS, the epidermis was split from the dermis by incubating the biopsies for 24 hrs in 2 M sodium bromide solution with shaking. The epidermis was peeled off from the dermis using a tweezer and dissolved in1 ml of 0.5N NaOH with overnight incubation at 60 ° C. 200 μl of the dissolved epidermis was used for scintillation counting to determine the amount of ^3H thymidine incorporation into the epidermis. The data was calculated as mean cpm for at least 4 replicates, and was also calculated as % of control biopsies which received no actives.
(In general: Dividing cells build labelled thymidine or BrdU into new DNA.)

Experiment [2] deals with ZR75 cells. As to the kind of experiment: 3H-thymidine incorporation (DNA synthesis / proliferation) in ZR75 cells, test for estrogen-like activity. It counts as cell-based, human. The settings on record: for ZR 75 DNA synthesis (% of Control): Experiment 1; for % of Control / cpm ± SD: 10 nM. The text has this: The incorporation of ^3H-thymidine by cultured cells was used as an assay of cell proliferation (ZR75 or keratinocyte). Thymidine is one of four deoxynucleosides which are the monomeric units of DNA. Prior to cell division of a somatic cell, the complete genome of the cell undergoing cell division is replicated. This involves large scale DNA synthesis by the cell and enables both daughter cells to receive identical copies of the genetic material. When ^3H-thymidine is included in the culture media of cells which are synthesizing DNA in preparation for cell division then the labeled thymidine is incorporated into the newly synthesized DNA. The extent of incorporation of ^3H-thymidine into a population of cells is proportional to the rate of DNA synthesis. by this population of cells and therefore an indication of their cellular proliferation.
ZR75 cell line is a ductal breast carcinoma cell line, originally isolated from malignant mammary epithelium of a person (Engel et al., Human breast carcinoma cells in continuous culture: A review., Cancer Res., 38: 4327-4339, 1978) This cell line contains receptors for estrogen, progesterone and other steroid hormones, but responds through an increase in proliferation only to estrogen. The cell line contains high affinity estrogen-specific receptors. Therefore, this cell line is used for testing estrogen-like activity (Markiewicz et al., In vitro bioassays of non-steroidal phytoestrogens, J. Steroid Biochem. Molec. Biol., 45: 399-405, 1993).
1. ZR75 cells (from American Type Culture Collection, Rockville, Md.) were grown in RPMT1640 media (from Gibco Life Technologies) with 10% fetal bovine serum (FBS), 100 units penicillin per ml and 100 units of streptomycin per ml. […] The. cells were seeded at a density of one million per 75 cm2 flask. For the experiment, the cells were seeded in 24 well plates at 100,000 cells per ml per well.
2. After growing for 24 hours, the media was removed, the cells were washed with PBS and 1 ml of RPMI 1640 without serum (but with streptomycin and penicillin) was added. Stock solutions of chick pea extract in dimethyl sulfoxide. (DMSO) and estradiol in water were prepared. […] After another 24 hours, […] of [methyl-3H] thymidine was added to each well. The media was removed after 24 hours. The cells were washed once in PBS, the PBS was removed completely and the cells were left on ice to incubate with 1 ml per well of10% TCA (trichlioroacetic acid) for 30 minutes. The plates were washed 3 times with 5% TCA to remove all traces of thymidine which wasn't incorporated into the cells. 500 μl of 0.1M sodium hydroxide was added to each well and the plates were incubated at room temperature for at least 30 minutes. 250 μl of each sample was transferred to scintillation vials and after adding 5 ml of counting fluid, the vials were counted for 5 minutes each on a setting for tritium. […] Values were expressed as mean of triplicate wells ± standard deviation.

Some results are limits rather than exact numbers.

Regarding `O=c1c(-c2ccc(O)cc2)coc2cc(O)ccc12` [Daidzein, daidzein], the “proliferation of piglet epidermal cells, in words” value in experiment [1] is given as “more effective than the natural hormone estradiol”. In addition, in experiment [1] (Experiment 1, 1 μg/ml), the “% of Control” value was 227 ± 24.4 % of Control and the “cpm ± SD” value worked out at 8599 ± 927 cpm. Also, in experiment [1] (Experiment 1, 10 μg/ml), the “% of Control” value is 292 ± 76.5 % of Control and the “cpm ± SD” value worked out at 11065 ± 2901 cpm.
For `C[C@]12CC[C@@H]3c4ccc(O)cc4CC[C@H]3[C@@H]1CC[C@@H]2O` [Estradiol, estradiol], the “% of Control” value in experiment [1] (Experiment 1, 1 nM) is listed as 58.9 ± 24.4 % of Control; in experiment [1] (Experiment 1, 10 nM), 113 ± 24 % of Control; in experiment [1] (Experiment 1, 100 nM), 39.0 ± 32.6 % of Control; in experiment [1] (Experiment 2, 1 nM) it was 196 ± 67.7 % of Control; in experiment [1] (Experiment 2, 10 nM) it was 330 ± 101 % of Control; in experiment [1] (Experiment 2, 100 nM) it was 241 ± 65 % of Control. The “% of Control” value is listed as 839 ± 27 % of Control in experiment [2] (Experiment 2) and 211 ± 7.6 % of Control in experiment [2] (Experiment 3). Besides, the “cpm ± SD” value in experiment [1] (Experiment 1, 1 nM) is listed as 2690 ± 1113 cpm; in experiment [1] (Experiment 1, 10 nM), 5190 ± 1096 cpm; in experiment [1] (Experiment 1, 100 nM) it was 1757 ± 1492 cpm; in experiment [1] (Experiment 2, 1 nM), 2273 ± 783 cpm; in experiment [1] (Experiment 2, 10 nM), 3817 ± 1175 cpm; in experiment [1] (Experiment 2, 100 nM) it was 2785 ± 751 cpm. The “cpm ± SD” value in experiment [2] (Experiment 2) amounted to 122254 ± 3940 cpm; in experiment [2] (Experiment 3) it was 30158 ± 1087 cpm. Besides, the “ZR 75 DNA synthesis (% of Control)” value in experiment [2] (0.01 nM) was 117 ± 19.7 % of Control; in experiment [2] (0.1 nM), 106 ± 16.3 % of Control; in experiment [2] (1.0 nM), 162 ± 3.2 % of Control; in experiment [2] (10.0 nM) it was 267 ± 15.1 % of Control; in experiment [2] (100 nM), 203 ± 51.2 % of Control; in experiment [2] (1000 nM), 178 ± 20.1 % of Control. In addition, the “concentration that increased DNA synthesis of ZR75 cells” value in experiment [2] (Table 1) is recorded as at least 1 nM.
Regarding `COc1ccc(-c2coc3cc(O)ccc3c2=O)cc1` [Formononetin, formononetin], the “% of Control” value in experiment [1] (Experiment 1, 1 μg/ml) was 126 ± 33.2 % of Control; in experiment [1] (Experiment 1, 10 μg/ml), 174 ± 76.1 % of Control. Also, the “cpm ± SD” value in experiment [1] (Experiment 1, 1 μg/ml) is 4770 ± 1260 cpm; in experiment [1] (Experiment 1, 10 μg/ml) it was 6608 ± 2886 cpm.
